Source: US20240270740A1, “INHIBITORS OF CYCLIC GMP-AMP SYNTHASE AND USES THEREOF” (Ventus Therapeutics U.S., Inc., priority 2022, published 2024)

Key:
[1] = target: T1, hcGAS (Homo sapiens, UniProt Q8N884); assay: hcGAS Kinase-Glo assay (ATP depletion); format: biochemical; conditions: 40 nM hcGAS, 100 μM ATP, 100 μM GTP, 25 nM dsDNA, 3 h incubation
Experimental: cGAS catalyzes the cyclization of ATP and GTP to produce cGAMP, which is the activating ligand of STING. Human cGAS (hcGAS) inhibition can thus be quantified by measuring how much cGAMP is formed either indirectly, by monitoring ATP-depletion as in the hcGAS Kinase-Glo assay (as described below), or directly, such as using the hcGAS LCMS assay (as described below).
(i) hcGAS Kinase-Glo Assay
Compounds were tested for their human-cGAS […] inhibition activity using the methodology reported in Lama et al., “Development of human cGAS-specific small molecule inhibitors for repression of dsDNA-triggered interferon expression”, Nature Communications 10, Article number: 2261 (2019), with slight changes to some conditions as shown in Table B.
The results of the assay, expressed in IC50 values, are reported in Table D with the following designations: A represents an IC50 value<0.01 μM; B represents an IC50 value≥0.01 μM and <0.03 μM; C represents an IC50 value≥0.03 μM and <0.1 μM; D represents an IC50 value≥0.1.

[2] = target: T1, hcGAS; assay: hcGAS LCMS assay (direct measurement of cGAMP production); format: biochemical; conditions: 0.5 nM hcGAS, 100 μM ATP, 100 μM GTP, 25 nM dsDNA, 4 h incubation
Procedure, shortened: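 Direct LC/MS readout of cGAMP formed: 4-h enzyme–substrate incubation with compound, stopped by acetonitrile/water quench carrying isotope-labelled cGAMP (0.15 mM) as standard. Potency reported as IC50 ranges.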

T1 sequence (Q8N884 whole entry): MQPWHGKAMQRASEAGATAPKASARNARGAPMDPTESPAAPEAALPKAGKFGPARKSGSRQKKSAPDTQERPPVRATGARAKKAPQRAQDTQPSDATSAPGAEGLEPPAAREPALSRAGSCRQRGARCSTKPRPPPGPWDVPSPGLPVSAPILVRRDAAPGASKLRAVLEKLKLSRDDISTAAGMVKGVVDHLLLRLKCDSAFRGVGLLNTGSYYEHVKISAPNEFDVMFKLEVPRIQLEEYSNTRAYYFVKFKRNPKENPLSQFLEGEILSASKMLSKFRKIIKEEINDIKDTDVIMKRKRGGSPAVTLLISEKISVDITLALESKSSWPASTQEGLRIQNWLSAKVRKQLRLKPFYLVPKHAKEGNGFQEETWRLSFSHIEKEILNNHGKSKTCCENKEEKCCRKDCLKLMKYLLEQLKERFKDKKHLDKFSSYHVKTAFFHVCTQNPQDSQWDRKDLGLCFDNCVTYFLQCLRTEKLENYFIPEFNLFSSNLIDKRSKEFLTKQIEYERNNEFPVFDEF

Compound	IC50 [1] [nM]	IC50 [2] [nM]
COc1c(N[C@H]2CC[C@H](O)C2)cc(C(=O)Nc2nnc(-n3nccc3C)s2)oc1=O (racemic) [Rac-6, 4-(((1S,3S)-3-hydroxycyclopentyl)amino)-3-methoxy-N-(5-(5-methyl-1H-pyrazol-1-yl)-1,3,4-thiadiazol-2-yl)-2-oxo-2H-pyran-6-carboxamide]	10 to 30	5 to 20
COc1c(N[C@@H]2CCC[C@@H]2O)cc(C(=O)Nc2nnc(-c3sccc3Cl)s2)oc1=O (racemic) [Rac-7, N-(5-(3-chlorothiophen-2-yl)-1,3,4-thiadiazol-2-yl)-4-(((cis)-2-hydroxycyclopentyl)amino)-3-methoxy-2-oxo-2H-pyran-6-carboxamide]	< 10	< 5
COc1c(N[C@H]2CCC[C@H]2OC)cc(C(=O)Nc2nnc(-n3nccc3C)s2)oc1=O (racemic) [Rac-14, 3-methoxy-4-(((1S,2R)-2-methoxycyclopentyl)amino)-N-(5-(5-methyl-1H-pyrazol-1-yl)-1,3,4-thiadiazol-2-yl)-2-oxo-2H-pyran-6-carboxamide]	10 to 30	5 to 20
COc1c(N[C@@H]2CCC[C@@H]2O)cc(C(=O)Nc2nnc(-n3nccc3C)s2)oc1=O (racemic) [Rac-23, 4-(((cis)-2-hydroxycyclopentyl)amino)-3-methoxy-N-(5-(5-methyl-1H-pyrazol-1-yl)-1,3,4-thiadiazol-2-yl)-2-oxo-2H-pyran-6-carboxamide]	10 to 30	< 5
CCc1ccnn1-c1nnc(NC(=O)c2cc(NCCOC)c(OC)c(=O)o2)s1 [Compound 141, N-(5-(5-ethyl-1H-pyrazol-1-yl)-1,3,4-thiadiazol-2-yl)-3-methoxy-4-((2-methoxyethyl)amino)-2-oxo-2H-pyran-6-carboxamide]	≥ 100	
COCCNc1cc(C(=O)Nc2nnc(-n3nccc3C(F)F)s2)oc(=O)c1OC [Compound 144, N-(5-(5-(difluoromethyl)-1H-pyrazol-1-yl)-1,3,4-thiadiazol-2-yl)-3-methoxy-4-((2-methoxyethyl)amino)-2-oxo-2H-pyran-6-carboxamide]	10 to 30	
COc1c(NCCO)cc(C(=O)Nc2nnc(-c3sccc3Cl)s2)oc1=O [Compound 147, N-[5-(3-chlorothiophen-2-yl)-1,3,4-thiadiazol-2-yl]-4-[(2-hydroxyethyl)amino]-5-methoxy-6-oxopyran-2-carboxamide]	≥ 100	
COCCNc1cc(C(=O)Nc2nnc(-n3nccc3Cl)s2)oc(=O)c1OC [Compound 148, N-[5-(5-chloropyrazol-1-yl)-1,3,4-thiadiazol-2-yl]-5-methoxy-4-[(2-methoxyethyl)amino]-6-oxopyran-2-carboxamide]	≥ 100	
COc1c(NC2CC2)cc(C(=O)Nc2nnc(-n3nccc3C)s2)oc1=O [Compound 180, 4-(cyclopropylamino)-5-methoxy-N-[5-(5-methylpyrazol-1-yl)-1,3,4-thiadiazol-2-yl]-6-oxopyran-2-carboxamide]	30 to 100	
COc1c(NCCN(C)C)cc(C(=O)Nc2nnc(-n3nccc3C)s2)oc1=O [Compound 181, 4-((2-(dimethylamino)ethyl)amino)-3-methoxy-N-(5-(5-methyl-1H-pyrazol-1-yl)-1,3,4-thiadiazol-2-yl)-2-oxo-2H-pyran-6-carboxamide]	≥ 100	
COc1c(N2CCOCC2)cc(C(=O)Nc2nnc(-n3nccc3C)s2)oc1=O [Compound 186, 3-methoxy-N-(5-(5-methyl-1H-pyrazol-1-yl)-1,3,4-thiadiazol-2-yl)-4-morpholino-2-oxo-2H-pyran-6-carboxamide]	30 to 100	
COc1c(NCCN)cc(C(=O)Nc2nnc(-n3nccc3C)s2)oc1=O [Compound 203, 4-((2-aminoethyl)amino)-3-methoxy-N-(5-(5-methyl-1H-pyrazol-1-yl)-1,3,4-thiadiazol-2-yl)-2-oxo-2H-pyran-6-carboxamide]	≥ 100	
CNCCNc1cc(C(=O)Nc2nnc(-n3nccc3C)s2)oc(=O)c1OC [Compound 204, 3-methoxy-N-(5-(5-methyl-1H-pyrazol-1-yl)-1,3,4-thiadiazol-2-yl)-4-((2-(methylamino)ethyl)amino)-2-oxo-2H-pyran-6-carboxamide]	≥ 100	
COc1c(N[C@H]2CC[C@H](O)CC2)cc(C(=O)Nc2nnc(-n3nccc3C)s2)oc1=O [Compound 217]	10 to 30	
COc1c(NC23CC(CO)(C2)C3)cc(C(=O)Nc2nnc(-n3nccc3C)s2)oc1=O [Compound 218, 4-((3-(hydroxymethyl)bicyclo[1.1.1]pentan-1-yl)amino)-3-methoxy-N-(5-(5-methyl-1H-pyrazol-1-yl)-1,3,4-thiadiazol-2-yl)-2-oxo-2H-pyran-6-carboxamide]	10 to 30	
COc1c(N[C@H]2CC[C@@H](OC)CC2)cc(C(=O)Nc2nnc(-n3nccc3C)s2)oc1=O [Compound 219, 3-methoxy-4-((1,4-cis-4-methoxycyclohexyl)amino)-N-(5-(5-methyl-1H-pyrazol-1-yl)-1,3,4-thiadiazol-2-yl)-2-oxo-2H-pyran-6-carboxamide]	10 to 30	

More lines, now with the values ahead:

IC50 [1] [nM]	IC50 [2] [nM]	Compound
10 to 30	5 to 20	3-methoxy-4-(((1R,2S)-2-methoxycyclobutyl)amino)-N-(5-(5-methyl-1H-pyrazol-1-yl)-1,3,4-thiadiazol-2-yl)-2-oxo-2H-pyran-6-carboxamide [Rac-67]
10 to 30	5 to 20	COc1c(N[C@@H]2CC[C@H]2OC)cc(C(=O)Nc2nnc(-n3nccc3C)s2)oc1=O (racemic) [Rac-36, 3-methoxy-4-(((1R,2R)-2-methoxycyclobutyl)amino)-N-(5-(5-methyl-1H-pyrazol-1-yl)-1,3,4-thiadiazol-2-yl)-2-oxo-2H-pyran-6-carboxamide]
10 to 30	5 to 20	COc1c(N[C@@H]2CC[C@@H]2O)cc(C(=O)Nc2nnc(-n3nccc3C)s2)oc1=O (racemic) [Rac-43, 4-(((1R,2S)-2-hydroxycyclobutyl)amino)-3-methoxy-N-(5-(5-methyl-1H-pyrazol-1-yl)-1,3,4-thiadiazol-2-yl)-2-oxo-2H-pyran-6-carboxamide]
10 to 30	5 to 20	COc1c(N[C@H]2CC[C@@H](O)C2)cc(C(=O)Nc2nnc(-n3nccc3C)s2)oc1=O (racemic) [Rac-61, 4-(((1S,3R)-3-hydroxycyclopentyl)amino)-3-methoxy-N-(5-(5-methyl-1H-pyrazol-1-yl)-1,3,4-thiadiazol-2-yl)-2-oxo-2H-pyran-6-carboxamide]
10 to 30	5 to 20	COc1c(N2C[C@H](O)[C@H](OC)C2)cc(C(=O)Nc2nnc(-n3nccc3C)s2)oc1=O (racemic) [Rac-68, 4-((3S,4R)-3-hydroxy-4-methoxypyrrolidin-1-yl)-3-methoxy-N-(5-(5-methyl-1H-pyrazol-1-yl)-1,3,4-thiadiazol-2-yl)-2-oxo-2H-pyran-6-carboxamide]
< 10	5 to 20	COc1c(N2C[C@H](OC)[C@@H](O)C2)cc(C(=O)Nc2nnc(-n3nccc3C)s2)oc1=O (racemic) [Rac-91, 4-((3S,4S)-3-hydroxy-4-methoxypyrrolidin-1-yl)-3-methoxy-N-(5-(5-methyl-1H-pyrazol-1-yl)-1,3,4-thiadiazol-2-yl)-2-oxo-2H-pyran-6-carboxamide]
10 to 30	5 to 20	COc1c(N2C[C@H](OC)[C@@H](OC)C2)cc(C(=O)Nc2nnc(-n3nccc3C)s2)oc1=O (racemic) [Rac-92, 4-((3S,4S)-3,4-dimethoxypyrrolidin-1-yl)-3-methoxy-N-(5-(5-methyl-1H-pyrazol-1-yl)-1,3,4-thiadiazol-2-yl)-2-oxo-2H-pyran-6-carboxamide]
< 10	5 to 20	COc1c(N[C@H]2CCC[C@@H]2OC)cc(C(=O)Nc2nnc(-n3nccc3C)s2)oc1=O (racemic) [Rac-107, 3-methoxy-4-(((1S,2S)-2-methoxycyclopentyl)amino)-N-(5-(5-methyl-1H-pyrazol-1-yl)-1,3,4-thiadiazol-2-yl)-2-oxo-2H-pyran-6-carboxamide]
10 to 30	5 to 20	COc1c(N[C@H]2CC[C@@H](OC)C2)cc(C(=O)Nc2nnc(-n3nccc3C)s2)oc1=O (racemic) [Rac-108, 3-methoxy-4-(((cis)-3-methoxycyclopentyl)amino)-N-(5-(5-methyl-1H-pyrazol-1-yl)-1,3,4-thiadiazol-2-yl)-2-oxo-2H-pyran-6-carboxamide]
10 to 30	5 to 20	COc1c(N[C@H]2CC[C@H](OC)C2)cc(C(=O)Nc2nnc(-n3nccc3C)s2)oc1=O (racemic) [Rac-109, 3-methoxy-4-(((trans)-3-methoxycyclopentyl)amino)-N-(5-(5-methyl-1H-pyrazol-1-yl)-1,3,4-thiadiazol-2-yl)-2-oxo-2H-pyran-6-carboxamide]
< 10	< 5	COc1c(N[C@H]2CCC[C@H]2O)cc(C(=O)Nc2nnc(-c3c(Cl)ccn3C)s2)oc1=O (racemic) [Rac-188, N-(5-(3-chloro-1-methyl-1H-pyrrol-2-yl)-1,3,4-thiadiazol-2-yl)-4-(((1S,2R)-2-hydroxycyclopentyl)amino)-3-methoxy-2-oxo-2H-pyran-6-carboxamide]
